Measured values: ChEMBL document CHEMBL3885881, “DrugMatrix”

Species: Rattus norvegicus
Test: DrugMatrix - Regimen: Daily Repeat
Assay type: toxicity, organism-based, Sprague-Dawley
Parameters: regimen Daily Repeat, gender Male, age 6-8 weeks
Settings: in vivo, po, route oral GAVAGE, vehicle 100 % WATER; for ABSOLUTE BASOPHIL / ABSOLUTE EOSINOPHIL / ABSOLUTE LYMPHOCYTE / ABSOLUTE MONOCYTE / ABSOLUTE SEGMENTED NEUTROPHIL / BASOPHIL / EOSINOPHIL / ERYTHROCYTE COUNT / HEMATOCRIT / HEMOGLOBIN / LEUKOCYTE COUNT / LYMPHOCYTE / MEAN CORPUSCULAR HEMOGLOBIN / MEAN CORPUSCULAR HEMOGLOBIN CONCENTRATION / MEAN CORPUSCULAR VOLUME / MONOCYTE / NEUTROPHIL / NUCLEATED RED BLOOD CELLS / PLATELET COUNT: tissue Blood; for ALANINE AMINOTRANSFERASE / ALBUMIN / ALKALINE PHOSPHATASE / ASPARTATE AMINOTRANSFERASE / BLOOD UREA NITROGEN / CARBON DIOXIDE / CHLORIDE / CHOLESTEROL / CREATINE PHOSPHOKINASE / CREATININE / GLUCOSE / LACTATE DEHYDROGENASE / LIPASE / PHOSPHORUS / POTASSIUM / SODIUM / TOTAL BILIRUBIN / TOTAL PROTEIN / URIC ACID: tissue Plasma
[1] = 0 mg/kg, 72 h, dose level Control, time 3 day
[2] = 0 mg/kg, 120 h, dose level Control, time 5 day
[3] = 1 mg/kg, 72 h, dose level Low, time 3 day

CC[C@H](C)[C@H]1O[C@]2(C=C[C@@H]1C)C[C@@H]1C[C@@H](C/C=C(\C)[C@@H](O[C@H]3C[C@H](OC)[C@@H](O[C@H]4C[C@H](OC)[C@@H](O)[C@H](C)O4)[C@H](C)O3)[C@@H](C)/C=C/C=C3\CO[C@@H]4[C@H](O)C(C)=C[C@@H](C(=O)O1)[C@]34O)O2.CO[C@H]1C[C@H](O[C@H]2[C@H](C)O[C@@H](O[C@@H]3/C(C)=C/C[C@@H]4C[C@@H](C[C@]5(C=C[C@H](C)[C@@H](C(C)C)O5)O4)OC(=O)[C@@H]4C=C(C)[C@@H](O)[C@H]5OC/C(=C\C=C\[C@@H]3C)[C@]54O)C[C@@H]2OC)O[C@@H](C)[C@@H]1O [ABAMECTIN]
ABSOLUTE BASOPHIL [1]: 0 CELLS/uL | ABSOLUTE EOSINOPHIL [1]: 40 CELLS/uL | ABSOLUTE LYMPHOCYTE [1]: 13599.5 CELLS/uL | ABSOLUTE MONOCYTE [1]: 239.33 CELLS/uL | ABSOLUTE SEGMENTED NEUTROPHIL [1]: 1021.17 CELLS/uL | BASOPHIL [1]: 0% | EOSINOPHIL [1]: 0.33% | ERYTHROCYTE COUNT [1]: 5.71 x10E6/uL | HEMATOCRIT [1]: 36.35% | HEMOGLOBIN [1]: 14.05 G/DL | LEUKOCYTE COUNT [1]: 14.9 x10E3/uL | LYMPHOCYTE [1]: 91% | MEAN CORPUSCULAR HEMOGLOBIN [1]: 24.62 pg | MEAN CORPUSCULAR HEMOGLOBIN CONCENTRATION [1]: 38.65 G/DL | MEAN CORPUSCULAR VOLUME [1]: 63.7 fL | MONOCYTE [1]: 1.5% | NEUTROPHIL [1]: 7.17% | NUCLEATED RED BLOOD CELLS [1]: 0.33 /100WBC | PLATELET COUNT [1]: 1225.5 x10E3/uL | ALANINE AMINOTRANSFERASE [1]: 48.5 u/L | ALBUMIN [1]: 4.18 G/DL | ALKALINE PHOSPHATASE [1]: 390.83 u/L | ASPARTATE AMINOTRANSFERASE [1]: 89 u/L | BLOOD UREA NITROGEN [1]: 14.83 mg/dL | CARBON DIOXIDE [1]: 24.83 mmol/L | CHLORIDE [1]: 100.83 MEQ/L | CHOLESTEROL [1]: 72.5 mg/dL | CREATINE PHOSPHOKINASE [1]: 503 u/L | CREATININE [1]: 0.2 mg/dL | GLUCOSE [1]: 163 mg/dL | LACTATE DEHYDROGENASE [1]: 316.83 u/L | LIPASE [1]: 9.83 u/L | PHOSPHORUS [1]: 11.57 mg/dL | POTASSIUM [1]: 6.16 MEQ/L | SODIUM [1]: 142.62 MEQ/L | TOTAL BILIRUBIN [1]: 0.2 mg/dL | TOTAL PROTEIN [1]: 5.8 G/DL | URIC ACID [1]: 1.65 mg/dL | ABSOLUTE BASOPHIL [2]: 0 CELLS/uL | ABSOLUTE EOSINOPHIL [2]: 21 CELLS/uL | ABSOLUTE LYMPHOCYTE [2]: 14288.5 CELLS/uL | ABSOLUTE MONOCYTE [2]: 205.33 CELLS/uL | ABSOLUTE SEGMENTED NEUTROPHIL [2]: 968.5 CELLS/uL | BASOPHIL [2]: 0% | EOSINOPHIL [2]: 0.17% | ERYTHROCYTE COUNT [2]: 5.83 x10E6/uL | HEMATOCRIT [2]: 36.53% | HEMOGLOBIN [2]: 14.4 G/DL | LEUKOCYTE COUNT [2]: 15.48 x10E3/uL | LYMPHOCYTE [2]: 92% | MEAN CORPUSCULAR HEMOGLOBIN [2]: 24.72 pg | MEAN CORPUSCULAR HEMOGLOBIN CONCENTRATION [2]: 39.43 G/DL | MEAN CORPUSCULAR VOLUME [2]: 62.68 fL | MONOCYTE [2]: 1.33% | NEUTROPHIL [2]: 6.5% | NUCLEATED RED BLOOD CELLS [2]: 0.17 /100WBC | PLATELET COUNT [2]: 1280.5 x10E3/uL | ALANINE AMINOTRANSFERASE [2]: 50 u/L | ALBUMIN [2]: 4.28 G/DL | ALKALINE PHOSPHATASE [2]: 380.17 u/L | ASPARTATE AMINOTRANSFERASE [2]: 82.67 u/L | BLOOD UREA NITROGEN [2]: 15.33 mg/dL | CARBON DIOXIDE [2]: 27.17 mmol/L | CHLORIDE [2]: 100.33 MEQ/L | CHOLESTEROL [2]: 60.67 mg/dL | CREATINE PHOSPHOKINASE [2]: 441.5 u/L | CREATININE [2]: 0.16 mg/dL | GLUCOSE [2]: 146 mg/dL | LACTATE DEHYDROGENASE [2]: 189.33 u/L | LIPASE [2]: 9.17 u/L | PHOSPHORUS [2]: 11.67 mg/dL | POTASSIUM [2]: 6.86 MEQ/L | SODIUM [2]: 142.33 MEQ/L | TOTAL BILIRUBIN [2]: 0.2 mg/dL | TOTAL PROTEIN [2]: 6.12 G/DL | URIC ACID [2]: 1.82 mg/dL | ABSOLUTE BASOPHIL [3]: 0 CELLS/uL | ABSOLUTE EOSINOPHIL [3]: 0 CELLS/uL | ABSOLUTE LYMPHOCYTE [3]: 13707 CELLS/uL | ABSOLUTE MONOCYTE [3]: 388 CELLS/uL | ABSOLUTE SEGMENTED NEUTROPHIL [3]: 1005 CELLS/uL | BASOPHIL [3]: 0% | EOSINOPHIL [3]: 0% | ERYTHROCYTE COUNT [3]: 5.4 x10E6/uL | HEMATOCRIT [3]: 34.53% | HEMOGLOBIN [3]: 13.23 G/DL | LEUKOCYTE COUNT [3]: 15.1 x10E3/uL | LYMPHOCYTE [3]: 91% | MEAN CORPUSCULAR HEMOGLOBIN [3]: 24.47 pg | MEAN CORPUSCULAR HEMOGLOBIN CONCENTRATION [3]: 38.3 G/DL | MEAN CORPUSCULAR VOLUME [3]: 63.93 fL | MONOCYTE [3]: 2.67% | NEUTROPHIL [3]: 6.33% | NUCLEATED RED BLOOD CELLS [3]: 0 /100WBC | PLATELET COUNT [3]: 1310 x10E3/uL | ALANINE AMINOTRANSFERASE [3]: 54 u/L | ALBUMIN [3]: 4.17 G/DL | ALKALINE PHOSPHATASE [3]: 413 u/L | ASPARTATE AMINOTRANSFERASE [3]: 81.33 u/L | BLOOD UREA NITROGEN [3]: 14.33 mg/dL | CARBON DIOXIDE [3]: 26.67 mmol/L | CHLORIDE [3]: 100.33 MEQ/L | CHOLESTEROL [3]: 79.67 mg/dL | CREATINE PHOSPHOKINASE [3]: 332.67 u/L | CREATININE [3]: 0.19 mg/dL | GLUCOSE [3]: 158 mg/dL | LACTATE DEHYDROGENASE [3]: 294.67 u/L | LIPASE [3]: 9 u/L | PHOSPHORUS [3]: 11.97 mg/dL | POTASSIUM [3]: 6.52 MEQ/L | SODIUM [3]: 142.57 MEQ/L | TOTAL BILIRUBIN [3]: 0.23 mg/dL | TOTAL PROTEIN [3]: 5.73 G/DL | URIC ACID [3]: 1.57 mg/dL
